*1 amine or outer side, *2 acyl side, *3 side chain or, on linkers, in order; H or OH if unused. Where a SMILES comes first, the peptide text is derived from it. Side-chain parts run from the residue outwards. [ ]: non-standard residue; d: D form. The star is where a group is joined. C18 diacid = O=C(O)CCCCCCCCCCCCCCCCC(=O)*; γGlu = O=C(O)[C@H](CCC(=O)[*:2])N[*:1]; Nle = CCCC[C@H](N)C(=O)O; Aib = CC(C)(N)C(=O)O
What was measured:
human GIP receptor = biological target: T1, human GIP receptor (Homo sapiens, UniProt P48546); assay: In vitro potency (CRE luciferase; whole cells), BHK CRE luc2P hGIPR; format: cell-based; settings: 0.2% HSA
T1 construct: expressed in transfected cells; host or cells: BHK (parent line BHKTS13), BHK CRE luc2P hGIPR clone #5
T1 sequence (P48546 22-466): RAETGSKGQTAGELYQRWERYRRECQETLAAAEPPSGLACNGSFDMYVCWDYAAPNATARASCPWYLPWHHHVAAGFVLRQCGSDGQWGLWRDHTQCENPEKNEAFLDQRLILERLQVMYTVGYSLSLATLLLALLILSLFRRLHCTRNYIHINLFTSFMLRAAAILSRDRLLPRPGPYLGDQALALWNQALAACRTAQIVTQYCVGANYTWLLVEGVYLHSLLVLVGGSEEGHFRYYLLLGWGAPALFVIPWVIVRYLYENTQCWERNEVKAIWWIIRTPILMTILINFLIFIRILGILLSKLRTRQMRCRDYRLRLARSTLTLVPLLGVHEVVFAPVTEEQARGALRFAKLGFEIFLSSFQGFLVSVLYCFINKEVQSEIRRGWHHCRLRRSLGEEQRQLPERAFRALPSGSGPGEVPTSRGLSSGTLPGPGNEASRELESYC
How it was run: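 BHK clones carrying a CRE luciferase element, each transfected with one human receptor, were seeded at 5000 cells/well overnight. Compounds were diluted in buffer with 1% ovalbumin and 0.1% Pluronic F-68, with or without human serum albumin. Luminescence was read after steadylite plus; non-linear log(agonist)-response fit, averaged over at least two replicates.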

[1] = Pharmacokinetic study in minipigs, terminal half-life after i.v. administration; format: in vivo; settings: female, Göttingen, minipig, plasma, iv, 5 nmol/kg; read-out: t1/2 (hours) harmonic mean (converted)
Description: This is done in a pharmacokinetic (PK) study, where the terminal half-life of the derivative in question is determined. By terminal half-life is generally meant the period of time it takes to halve a certain plasma concentration, measured after the initial distribution phase.
Female Göttingen minipigs were obtained from Ellegaard Göttingen Minipigs (Dalmose, Denmark) approximately 7-14 months of age and weighing from approximately 16-35 kg were used in the studies. The minipigs were housed individually and fed restrictedly once daily with SDS minipig diet (Special Diets Services, Essex, UK).
After at 3 weeks of acclimatisation two permanent central venous catheters were implanted in vena cava caudalis in each animal. The animals were allowed 1 week recovery after the surgery, and were then used for repeated pharmacokinetic studies with a suitable wash-out period between successive derivative dosing.
Blood samples (for example 0.8 ml) were collected in EDTA buffer (8 mM) and then centrifuged at 4° C. and 1942G for 10 minutes.
Individual plasma concentration-time profiles were analysed by a non-compartmental model in Phoenix WnNonLin ver. […] (Pharsight Inc., Mountain View, Calif., USA), and the resulting terminal half-lives (harmonic mean) determined.

Row | EC50 (human GIP receptor) [nM] | half-life [1] [h] | Structure (SMILES)
1 | 0.0489 | 84 | CCCC[C@H](NC(=O)[C@H](C)NC(=O)[C@@H](NC(=O)[C@H](CO)NC(=O)[C@H](Cc1ccc(O)cc1)NC(=O)[C@H](CC(=O)O)NC(=O)[C@H](CO)NC(=O)[C@@H](NC(=O)[C@H](Cc1ccccc1)NC(=O)[C@@H](NC(=O)CNC(=O)[C@H](CCC(=O)O)NC(=O)[C@H](C)NC(=O)[C@@H](Cc1ccc(O)cc1)NC(C)=O)[C@@H](C)O)[C@@H](C)CC)[C@@H](C)CC)C(=O)N[C@@H](CC(=O)O)C(=O)N[C@@H](CCCCN)C(=O)N[C@H](C(=O)N[C@@H](CCCNC(=N)N)C(=O)N[C@@H](CCC(N)=O)C(=O)N[C@@H](CCC(N)=O)C(=O)N[C@@H](CC(=O)O)C(=O)N[C@@H](Cc1ccccc1)C(=O)N[C@H](C(=O)N[C@@H](CCCCNC(=O)CC[C@H](NC(=O)CC[C@H](NC(=O)CC[C@H](NC(=O)CCCCCCCCCCCCCCCCC(=O)O)C(=O)O)C(=O)O)C(=O)O)C(=O)N[C@@H](Cc1c[nH]c2ccccc12)C(=O)N[C@@H](CC(C)C)C(=O)N[C@@H](CC(C)C)C(=O)N[C@@H](C)C(=O)N[C@@H](CCC(N)=O)C(=O)N[C@@H](CCCCN)C(=O)NCC(=O)O)C(C)C)[C@@H](C)CC [Compound 7, N{1}-acetyl, N{Epsilon-24}-[(4S)-4-carboxy-4-[[(4S)-4-carboxy-4-[[(4S)-4-carboxy-4-(17-carboxyheptadecanoylamino)butanoyl]amino]butanoyl]amino]butanoyl]-[D-Tyr1,Nle14,Arg18, Lys24]-hGIP(1-31)]
2 | 0.0094 | 89 | CCCC[C@H](NC(=O)[C@H](C)NC(=O)[C@@H](NC(=O)[C@H](CO)NC(=O)[C@H](Cc1ccc(O)cc1)NC(=O)[C@H](CC(=O)O)NC(=O)[C@H](CO)NC(=O)[C@@H](NC(=O)[C@H](Cc1ccccc1)NC(=O)[C@@H](NC(=O)CNC(=O)[C@H](CCC(=O)O)NC(=O)C(C)(C)NC(=O)[C@@H](N)Cc1ccc(O)cc1)[C@@H](C)O)[C@@H](C)CC)[C@@H](C)CC)C(=O)N[C@@H](CC(=O)O)C(=O)N[C@@H](CCCCN)C(=O)N[C@H](C(=O)N[C@@H](CCCNC(=N)N)C(=O)N[C@@H](CCC(N)=O)C(=O)NC(C)(C)C(=O)N[C@@H](CC(=O)O)C(=O)N[C@@H](Cc1ccccc1)C(=O)N[C@H](C(=O)N[C@@H](CCCCNC(=O)CC[C@H](NC(=O)CC[C@H](NC(=O)CC[C@H](NC(=O)CCCCCCCCCCCCCCCCC(=O)O)C(=O)O)C(=O)O)C(=O)O)C(=O)N[C@@H](Cc1c[nH]c2ccccc12)C(=O)N[C@@H](CC(C)C)C(=O)N[C@@H](CC(C)C)C(=O)N[C@@H](C)C(=O)N[C@@H](CCC(N)=O)C(=O)N[C@@H](CCCCN)C(=O)NCC(=O)O)C(C)C)[C@@H](C)CC [Compound 11, N{Epsilon-24}-[(4S)-4-carboxy-4-[[(4S)-4-carboxy-4-[[(4S)-4-carboxy-4-(17-carboxyheptadecanoylamino)butanoyl]amino]butanoyl]amino]butanoyl]-[Aib2,Nle14,Arg18,Aib20,Lys24]-hGIP(1-31)] (H-Y[Aib]EGTFISDYSIA[Nle]DKIRQ[Aib]DFVK([γGlu-γGlu-γGlu-C18 diacid])WLLAQKG-OH)
3 | 0.0304 | 81 | CCCC[C@H](NC(=O)[C@H](C)NC(=O)[C@@H](NC(=O)[C@H](CO)NC(=O)[C@H](Cc1ccc(O)cc1)NC(=O)[C@H](CC(=O)O)NC(=O)[C@H](CO)NC(=O)[C@@H](NC(=O)[C@H](Cc1ccccc1)NC(=O)[C@@H](NC(=O)CNC(=O)[C@H](CCC(=O)O)NC(=O)[C@H](C)NC(=O)[C@@H](Cc1ccc(O)cc1)NC(C)=O)[C@@H](C)O)[C@@H](C)CC)[C@@H](C)CC)C(=O)N[C@@H](CC(=O)O)C(=O)N[C@@H](CCCCN)C(=O)N[C@H](C(=O)N[C@@H](CCCNC(=N)N)C(=O)N[C@@H](CCC(N)=O)C(=O)N[C@@H](CCC(N)=O)C(=O)N[C@@H](CC(=O)O)C(=O)N[C@@H](Cc1ccccc1)C(=O)N[C@H](C(=O)N[C@@H](CCCCNC(=O)COCCOCCNC(=O)COCCOCCNC(=O)CC[C@H](NC(=O)CCCCCCCCCCCCCCCCC(=O)O)C(=O)O)C(=O)N[C@@H](Cc1c[nH]c2ccccc12)C(=O)N[C@@H](CC(C)C)C(=O)N[C@@H](CC(C)C)C(=O)N[C@@H](C)C(=O)N[C@@H](CCC(N)=O)C(=O)N[C@@H](CCCCN)C(=O)NCC(=O)O)C(C)C)[C@@H](C)CC [Compound 15, N{1}-acetyl,N{Epsilon-24}-[2-[2-[2-[[2-[2-[2-[[(4S)-4-carboxy-4-(17-carboxyheptadecanoylamino)butanoyl]amino]ethoxy]ethoxy]acetyl]amino]ethoxy]ethoxy]acetyl]-[D-Tyr1,Nle14,Arg18,Lys24]-hGIP(1-31)]
4 | 0.0431 | 88 | CCCC[C@H](NC(=O)[C@H](C)NC(=O)[C@@H](NC(=O)[C@H](CO)NC(=O)[C@H](Cc1ccc(O)cc1)NC(=O)[C@H](CC(=O)O)NC(=O)[C@H](CO)NC(=O)[C@@H](NC(=O)[C@H](Cc1ccccc1)NC(=O)[C@@H](NC(=O)CNC(=O)[C@H](CCC(=O)O)NC(=O)[C@H](C)NC(=O)[C@@H](Cc1ccc(O)cc1)NC(C)=O)[C@@H](C)O)[C@@H](C)CC)[C@@H](C)CC)C(=O)N[C@@H](CC(=O)O)C(=O)N[C@@H](CCCCN)C(=O)N[C@H](C(=O)N[C@@H](CCCNC(=N)N)C(=O)N[C@@H](CCC(N)=O)C(=O)N[C@@H](CCC(N)=O)C(=O)N[C@@H](CC(=O)O)C(=O)N[C@@H](Cc1ccccc1)C(=O)N[C@H](C(=O)N[C@@H](CCCCNC(=O)COCCOCCNC(=O)COCCOCCNC(=O)CC[C@H](NC(=O)CC[C@H](NC(=O)CC[C@H](NC(=O)CCCCCCCCCCCCCCCCC(=O)O)C(=O)O)C(=O)O)C(=O)O)C(=O)N[C@@H](Cc1c[nH]c2ccccc12)C(=O)N[C@@H](CC(C)C)C(=O)N[C@@H](CC(C)C)C(=O)N[C@@H](C)C(=O)N[C@@H](CCC(N)=O)C(=O)N[C@@H](CCCCN)C(=O)NCC(=O)O)C(C)C)[C@@H](C)CC [Compound 17, N{1}-acetyl,N{Epsilon-24}-[2-[2-[2-[[2-[2-[2-[[(4S)-4-carboxy-4-[[(4S)-4-carboxy-4-[[(4S)-4-carboxy-4-(17-carboxyheptadecanoylamino)butanoyl]amino]butanoyl]amino]-butanoyl]amino]ethoxy]ethoxy]acetyl]amino]ethoxy]ethoxy]acetyl]-[D-Tyr1,Nle14,Arg18,Lys24]-hGIP(1-31)]

From patent US10604555B2, “GIP derivatives and uses thereof” (priority 2018, dated 2020)
